Like-named read-outs stand apart in the source and are kept apart here.
Columns and labels:
TRPV1 = molecular target: T1, TRPV1 (Rattus norvegicus, UniProt O35433); experiment: TRPV1 agonist activity by intracellular calcium level (FLIPR method); type: cell-based; settings: rat dorsal root ganglion primary culture cells
T1 construct: using cultured rat dorsal root ganglion cells which express TRPV1 abundantly; endogenous in cells; host or cells: primary culture of dorsal root ganglion cells from 7 day old Wistar rat
T1 sequence (O35433 whole entry): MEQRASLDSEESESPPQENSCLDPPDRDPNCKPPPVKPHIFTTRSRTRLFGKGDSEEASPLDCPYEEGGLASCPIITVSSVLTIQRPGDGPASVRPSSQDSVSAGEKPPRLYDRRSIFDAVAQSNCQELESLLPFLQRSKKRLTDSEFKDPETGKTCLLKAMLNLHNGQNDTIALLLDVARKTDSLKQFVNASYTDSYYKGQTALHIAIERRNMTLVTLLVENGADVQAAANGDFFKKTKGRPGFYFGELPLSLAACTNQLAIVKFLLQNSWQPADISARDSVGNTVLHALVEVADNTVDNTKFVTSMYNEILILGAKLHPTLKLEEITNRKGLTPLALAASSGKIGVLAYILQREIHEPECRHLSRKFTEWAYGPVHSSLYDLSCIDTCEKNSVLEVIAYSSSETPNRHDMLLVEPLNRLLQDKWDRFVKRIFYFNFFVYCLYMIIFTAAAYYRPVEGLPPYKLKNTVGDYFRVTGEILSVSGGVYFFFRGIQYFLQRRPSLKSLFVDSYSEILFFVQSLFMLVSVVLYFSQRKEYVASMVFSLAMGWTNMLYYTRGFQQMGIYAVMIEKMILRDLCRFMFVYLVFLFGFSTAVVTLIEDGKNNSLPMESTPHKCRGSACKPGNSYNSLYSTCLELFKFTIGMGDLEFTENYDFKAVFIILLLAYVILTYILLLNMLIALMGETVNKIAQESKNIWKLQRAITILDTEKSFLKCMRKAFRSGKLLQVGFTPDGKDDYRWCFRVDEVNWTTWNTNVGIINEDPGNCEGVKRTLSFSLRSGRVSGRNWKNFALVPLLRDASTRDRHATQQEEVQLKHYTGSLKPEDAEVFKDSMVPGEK
Source text: The test is to measure the elevation of intracellular calcium level as the indicator of TRPV1 agonist activity of a test compound using cultured rat dorsal root ganglion cells which express TRPV1 abundantly, and carried out in accordance with the method of Jerman et al. (Jerman, J. C. et al., Comparison of effects of anandamide at recombinant and endogenous rat vanilloid receptors. Br J Anaesth, 2002. 89(6): p. 882-7). More specifically, the dorsal root ganglion was removed from a 7 day old Wistar rat, and the cells were isolated by collagenase-trypsin treatment. Subsequently, the primary cells was cultured in a CO2 incubator controlled at 5% CO2 and 37° C. for 2 days. The culture medium used was Neurobasal™ medium supplemented with L-glutamine, nerve growth factor, N-2-Supplement, Penicillin-Streptomycin, 5-Fluoro-2′-deoxyuridine (culture day 1 only) were added to.
FLIPR^TETRA system (Molecular Devices Corp.) was used to measure the intracellular calcium concentration. As an indicator of TRPV1 agonistic activity, the fluorescence intensity elevation was monitored when a test compound is applied to the rat dorsal root ganglion primary culture cells loaded with a calcium-sensitive fluorescent reagent.

[1] = system: mechanical hyperalgesia in a neuropathic pain model (rat Chung model); experiment: Analgesic effect: von Frey filament test using rat Chung model, transdermal administration; type: in vivo; settings: 0.1% formulation applied transdermally to plantar surface of left hindlimb once a day for 2 weeks; measured on the day after last administration; pre-administration value = 100%
Procedure: The present test is to measure the analgesic effect based on the improvement level of the mechanical hyperalgesia in a neuropathic pain model as the indicator by transdermally administering the compound of the present invention and was carried out in accordance with the method of Kim and Chung [Pain, 50, 355-363 (1992)] or the method of Tsuda et al. [Nature, 424, 778-783, 2003].
Specifically, using Jcl: Wistar male rat (7 to 9 rats/group, 5 weeks of age at the time of surgery), spinal nerves were injured to induce hyperalgesia and the withdrawal threshold was measured using the von Frey filament. In the surgery, under Pentobarbital anesthesia, the left L5 spinal nerve was exposed, ligated near the spinal cord using a silk suture (5-0) and transected just peripheral to the ligation. After suturing the incision and keeping the rats for 2 weeks, the rats were subjected to the von Frey filament test. The measurement of the mechanical hyperalgesia was carried out by applying von Frey filaments (1.0, 2.0, 4.0, 8.0, 15.0 g) to the plantar surface of the left hindlimb, and the filament intensity at which 50% or higher withdrawal behavior was observed was defined as the withdrawal threshold.
After dissolving the test compounds in a mixture of Tween 80 and ethanol, the obtained solution was mixed with a hydrophilic ointment to prepare a formulation having a concentration of 0.1%. The withdrawal threshold before administering the test compound was measured to define the pre-administration value (100%). Thereafter, once a day, for 2 weeks, the formulation having a concentration of 0.1% was transdermally administered (applied) to the plantar surface of the left hindlimb, the von Frey filament test was carried out on the following day of the last administration to measure the post-administration value. Further, the same formulation as above but free of the test compound was prepared as a vehicle control and the same test was carried out.
The analgesic effect is a relative ratio when a test compound pre-administration value calculated using the following numerical formula is 100%. The pre-administration withdrawal threshold was 3.3±0.1 g (119 cases) (the withdrawal threshold of sham-operated rat was 10 to 15 g). %=(test compound post-administration withdrawal threshold value/pre-administration withdrawal threshold value)×100

[2] = 1 μM, read-out: Value (%) when fluorescence intensity for capsaicin (1 μM) is 100%
[3] = read-out: Value (%) when fluorescence intensity for capsaicin (1 μM) is 100%, 1 μM

Compound	Emax at 1 µM (TRPV1; [2]) [%]	also measured
CC[C@H]1CCCC[C@H]1OC(=O)N1CCC(C(=O)NCc2ccc(O)c(OC)c2)CC1 (relative stereo) [Example 13, cis-2-ethylcyclohexyl 4-(4-hydroxy-3-methoxybenzylcarbamoyl)-piperidine-1-carboxylate]	81	
COc1cc(CNC(=O)C2CCN(C(=O)O[C@H]3CCCC[C@@H]3C)CC2)ccc1O (relative stereo) [Example 47, (1S*,2S*)-2-methylcyclohexyl 4-(4-hydroxy-3-methoxybenzylcarbamoyl)-piperidine-1-carboxylate]		Emax at 1 µM (TRPV1; [3]): 85%
CC[C@H]1CC[C@@H](OC(=O)N2CCC(C(=O)NCc3ccc(O)c(OC)c3)CC2)CC1 [Example 1, cis-4-ethylcyclohexyl 4-(4-hydroxy-3-methoxybenzylcarbamoyl)-piperidine-1-carboxylate]		% to pre-administration value (withdrawal threshold) [1]: 220%; Emax at 1 µM (TRPV1; [3]): 87%
COc1cc(CNC(=O)C2CCN(C(=O)O[C@H]3CC[C@@H](C)CC3)CC2)ccc1O [Example 3]	80	
COc1cc(CNC(=O)C2CCN(C(=O)O[C@H]3CC[C@H](C)CC3)CC2)ccc1O [Example 4]	80	
COc1cc(CNC(=O)C2CCN(C(=O)O[C@H]3CC[C@@H](C(C)(C)C)CC3)CC2)ccc1O [Example 5]	84	
COc1cc(CNC(=O)C2CCN(C(=O)O[C@H]3CC[C@H](C(C)(C)C)CC3)CC2)ccc1O [Example 6]	80	
CCC1(CC)CCC(OC(=O)N2CCC(C(=O)NCc3ccc(O)c(OC)c3)CC2)CC1 [Example 7]	90	
COc1cc(CNC(=O)C2CCN(C(=O)O[C@@H]3CCC[C@H](C)C3)CC2)ccc1O [Example 9]	83	
COc1cc(CNC(=O)C2CCN(C(=O)O[C@H]3CCC[C@H](C)C3)CC2)ccc1O [Example 10]	92	
COc1cc(CNC(=O)C2CCN(C(=O)O[C@@H]3CCCC[C@@H]3C)CC2)ccc1O [Example 11]		Emax at 1 µM (TRPV1; [3]): 94%
COc1cc(CNC(=O)C2CCN(C(=O)O[C@@H]3C[C@H](C)C[C@H](C)C3)CC2)ccc1O [Example 12]	92	
CCC1(CC)CCC(OC(=O)N2CC(C(=O)NCc3ccc(O)c(OC)c3)C2)CC1 [Example 14, 4,4-diethylcyclohexyl 3-(4-hydroxy-3-methoxybenzylcarbamoyl)-azetidine-1-carboxylate]	78	% to pre-administration value (withdrawal threshold) [1]: 241%
CC[C@H]1CC[C@@H](OC(=O)N2CC(C(=O)NCc3ccc(O)c(OC)c3)C2)CC1 [Example 15]	83	
COc1cc(CNC(=O)C2CN(C(=O)O[C@H]3CC[C@H](C(C)(C)C)CC3)C2)ccc1O [Example 17]		Emax at 1 µM (TRPV1; [3]): 82%
COc1cc(CNC(=O)C2CN(C(=O)O[C@H]3CCC[C@H](C)C3)C2)ccc1O [Example 18]	86	
COc1cc(CNC(=O)C2CN(C(=O)OC3CC(C)(C)CC(C)(C)C3)C2)ccc1O [Example 19]	84	
COc1cc(CNC(=O)C2CN(C(=O)O[C@@H]3C[C@H](C)CC[C@H]3C(C)C)C2)ccc1O [Example 20]	73	
COc1cc(CNC(=O)C2CN(C(=O)O[C@H]3C[C@H](C)CC[C@H]3C(C)C)C2)ccc1O [Example 21]	85	
CCCC[C@H]1CC[C@@H](OC(=O)N2CC(C(=O)NCc3ccc(O)c(OC)c3)C2)CC1 [Example 22]	80	
CCCC[C@H]1CC[C@H](OC(=O)N2CC(C(=O)NCc3ccc(O)c(OC)c3)C2)CC1 [Example 23]	77	
COc1cc(CNC(=O)C2CN(C(=O)O[C@H]3CC[C@@H](C(C)C)CC3)C2)ccc1O [Example 24]	84	

Compound	Emax at 1 µM (TRPV1; [2]) [%]	also measured
COc1cc(CNC(=O)C2CN(C(=O)O[C@H]3CC[C@H](C(C)C)CC3)C2)ccc1O [Example 25]	71	
C=C(C)[C@@H]1CC[C@@H](C)C[C@H]1OC(=O)N1CC(C(=O)NCc2ccc(O)c(OC)c2)C1 [Example 26, (1R,2S,5R)-2-isopropenyl-5-methylcyclohexyl 3-(4-hydroxy-3-methoxybenzylcarbamoyl)-azetidine-1-carboxylate]	82	
COc1cc(CNC(=O)[C@H]2CCN(C(=O)OC3CCC(C)(C)CC3)C2)ccc1O [Example 27, 4,4-dimethylcyclohexyl (S)-3-(4-hydroxy-3-methoxybenzylcarbamoyl)-pyrrolidine-1-carboxylate]	86	
CC[C@H]1CC[C@@H](OC(=O)N2CC[C@H](C(=O)NCc3ccc(O)c(OC)c3)C2)CC1 [Example 28]	81	
CCC1(CC)CCC(OC(=O)N2CC[C@H](C(=O)NCc3ccc(O)c(OC)c3)C2)CC1 [Example 29]	83	
COc1cc(CNC(=O)[C@H]2CCN(C(=O)O[C@H]3CC[C@@H](C(C)(C)C)CC3)C2)ccc1O [Example 30]	78	
COc1cc(CNC(=O)[C@@H]2CCN(C(=O)OC3CCC(C)(C)CC3)C2)ccc1O [Example 31, 4,4-dimethylcyclohexyl (R)-3-(4-hydroxy-3-methoxybenzylcarbamoyl)-pyrrolidine-1-carboxylate]	68	
CC[C@H]1CC[C@@H](OC(=O)N2CC[C@@H](C(=O)NCc3ccc(O)c(OC)c3)C2)CC1 [Example 32]	78	
CCC1(CC)CCC(OC(=O)N2CC[C@@H](C(=O)NCc3ccc(O)c(OC)c3)C2)CC1 [Example 33]	73	
COc1cc(CNC(=O)[C@@H]2CCN(C(=O)O[C@H]3CC[C@@H](C(C)(C)C)CC3)C2)ccc1O [Example 34]	72	
COc1cc(CNC(=O)C2CCN(C(=O)O[C@@H]3CCC[C@@H](C)C3)CC2)ccc1O [Example 35, (1R,3R)-3-methylcyclohexyl 4-(4-hydroxy-3-methoxybenzylcarbamoyl)-piperidine-1-carboxylate]	86	% to pre-administration value (withdrawal threshold) [1]: 183%
COc1cc(CNC(=O)C2CCN(C(=O)O[C@H]3CCC[C@H](C)C3)CC2)ccc1O [Example 36, (1S,3S)-3-methylcyclohexyl 4-(4-hydroxy-3-methoxybenzylcarbamoyl)-piperidine-1-carboxylate]		% to pre-administration value (withdrawal threshold) [1]: 209%; Value (%) when fluorescence intensity for capsaicin (1 μM) is 100% (TRPV1; 1 μM): 104%
COc1cc(CNC(=O)C2CCN(C(=O)OC3CCCCCC3)CC2)ccc1O [Example 39]	91	
COc1cc(CNC(=O)C2CCN(C(=O)OCC3CCCCC3)CC2)ccc1O [Example 40]	91	
COc1cc(CNC(=O)C2CCN(C(=O)Oc3ccccc3C(C)C)CC2)ccc1O [Example 41, 2-isopropylphenyl 4-(4-hydroxy-3-methoxybenzylcarbamoyl)-piperidine-1-carboxylate]	83	
COc1cc(CNC(=O)C2CCN(C(=O)Oc3ccccc3C3CCCC3)CC2)ccc1O [Example 42]	72	
COc1cc(CNC(=O)C2CCN(C(=O)Oc3cccc(C(C)C)c3)CC2)ccc1O [Example 43]	68	
COc1cc(CNC(=O)C2CCN(C(=O)Oc3ccc(C(C)C)cc3)CC2)ccc1O [Example 44]	83	
COc1cc(CNC(=O)C2CN(C(=O)Oc3ccccc3C(C)C)C2)ccc1O [Example 45, 2-isopropylphenyl 3-(4-hydroxy-3-methoxybenzylcarbamoyl)-azetidine-1-carboxylate]	72	
COc1cc(CNC(=O)C2CN(C(=O)Oc3ccccc3C3CCCC3)C2)ccc1O [Example 46, 2-cyclopentylphenyl 3-(4-hydroxy-3-methoxybenzylcarbamoyl)-azetidine-1-carboxylate]	68	
COc1cc(CNC(=O)C2CCN(C(=O)OC3CCCCC3)CC2)ccc1O [Example 48, cyclohexyl 4-(4-hydroxy-3-methoxybenzylcarbamoyl)-piperidine-1-carboxylate]	77	
